Experimental data: US20210235704A9, “Combinations of Lipo-Chitooligosaccharides and Methods for Use in Enhancing Plant Growth” (NOVOZYMES BIOAG A/S, priority 2011, published 2021)

System: Florida petite cherry tomato plants
Experiment: LCO foliar application on cherry tomato (greenhouse)
Assay type: in vivo
Details: at the end of harvest, compared to control treatment; FIG. 11
Method: Based on the findings from the soybean LCO and the alfalfa LCO combination in Siratro (example 1), further investigation was conducted on tomato. Florida petite cherry tomato plants were grown from seeds in greenhouse plastic containers and sprayed with soy LCO or its combination with alfalfa LCO during the initiation of flower buds at 5 ml/plant application rate. A second spry was also applied one week after the first application. At different maturity, leaf greenness, flower number, fruit number and final fruit fresh weight were measured.

Substance: LCO-V(C18:1, MeFuc), MOR116 [soy LCO]
- average fruit number per plant: significantly higher
